What follows are compounds tested against T1, HiBit tagged KAT6A (Homo sapiens, UniProt Q92794) (assay: HiBit KAT6A Degradation Assessment). Details: HeLa cells with HiBit tagged KAT6A, 18 h of treatment, 9-point serial dilution.
T1 construct: host or cells: HeLa
Format: cell-based
Procedure: The degradation activity of compounds was evaluated by measuring levels of KAT6A protein using the HiBiT system. These studies were conducted in HeLa cells with a HiBit tagged KAT6A. Cells were maintained in a 37° C. incubator at 5% CO2 in EMEM (ATCC, 30-2003) supplemented with 10% v/v FBS (Gibco, 26140-079) and 1% penicillin streptomycin. Cells were seeded in 384-well plates at a density of 2,000 cells/well. Compounds dissolved in DMSO were added in 9-point serial dilution. After 18 h of treatment, KAT6A levels were measured using the Nano-Glo® HiBiT Lytic Detection System (Promega catalog number N3030) per manufacturer's instructions. Luminescence signal was measured with a multimode plate reader (Envision 2105, Perkin Elmer). Luminescence values were normalized to background and DMSO controls to quantify KAT6A for each condition. Results were analyzed, and DC50 and Dmax values obtained using a four-parameter logistic curve fit.

T1 sequence (Q92794 whole entry): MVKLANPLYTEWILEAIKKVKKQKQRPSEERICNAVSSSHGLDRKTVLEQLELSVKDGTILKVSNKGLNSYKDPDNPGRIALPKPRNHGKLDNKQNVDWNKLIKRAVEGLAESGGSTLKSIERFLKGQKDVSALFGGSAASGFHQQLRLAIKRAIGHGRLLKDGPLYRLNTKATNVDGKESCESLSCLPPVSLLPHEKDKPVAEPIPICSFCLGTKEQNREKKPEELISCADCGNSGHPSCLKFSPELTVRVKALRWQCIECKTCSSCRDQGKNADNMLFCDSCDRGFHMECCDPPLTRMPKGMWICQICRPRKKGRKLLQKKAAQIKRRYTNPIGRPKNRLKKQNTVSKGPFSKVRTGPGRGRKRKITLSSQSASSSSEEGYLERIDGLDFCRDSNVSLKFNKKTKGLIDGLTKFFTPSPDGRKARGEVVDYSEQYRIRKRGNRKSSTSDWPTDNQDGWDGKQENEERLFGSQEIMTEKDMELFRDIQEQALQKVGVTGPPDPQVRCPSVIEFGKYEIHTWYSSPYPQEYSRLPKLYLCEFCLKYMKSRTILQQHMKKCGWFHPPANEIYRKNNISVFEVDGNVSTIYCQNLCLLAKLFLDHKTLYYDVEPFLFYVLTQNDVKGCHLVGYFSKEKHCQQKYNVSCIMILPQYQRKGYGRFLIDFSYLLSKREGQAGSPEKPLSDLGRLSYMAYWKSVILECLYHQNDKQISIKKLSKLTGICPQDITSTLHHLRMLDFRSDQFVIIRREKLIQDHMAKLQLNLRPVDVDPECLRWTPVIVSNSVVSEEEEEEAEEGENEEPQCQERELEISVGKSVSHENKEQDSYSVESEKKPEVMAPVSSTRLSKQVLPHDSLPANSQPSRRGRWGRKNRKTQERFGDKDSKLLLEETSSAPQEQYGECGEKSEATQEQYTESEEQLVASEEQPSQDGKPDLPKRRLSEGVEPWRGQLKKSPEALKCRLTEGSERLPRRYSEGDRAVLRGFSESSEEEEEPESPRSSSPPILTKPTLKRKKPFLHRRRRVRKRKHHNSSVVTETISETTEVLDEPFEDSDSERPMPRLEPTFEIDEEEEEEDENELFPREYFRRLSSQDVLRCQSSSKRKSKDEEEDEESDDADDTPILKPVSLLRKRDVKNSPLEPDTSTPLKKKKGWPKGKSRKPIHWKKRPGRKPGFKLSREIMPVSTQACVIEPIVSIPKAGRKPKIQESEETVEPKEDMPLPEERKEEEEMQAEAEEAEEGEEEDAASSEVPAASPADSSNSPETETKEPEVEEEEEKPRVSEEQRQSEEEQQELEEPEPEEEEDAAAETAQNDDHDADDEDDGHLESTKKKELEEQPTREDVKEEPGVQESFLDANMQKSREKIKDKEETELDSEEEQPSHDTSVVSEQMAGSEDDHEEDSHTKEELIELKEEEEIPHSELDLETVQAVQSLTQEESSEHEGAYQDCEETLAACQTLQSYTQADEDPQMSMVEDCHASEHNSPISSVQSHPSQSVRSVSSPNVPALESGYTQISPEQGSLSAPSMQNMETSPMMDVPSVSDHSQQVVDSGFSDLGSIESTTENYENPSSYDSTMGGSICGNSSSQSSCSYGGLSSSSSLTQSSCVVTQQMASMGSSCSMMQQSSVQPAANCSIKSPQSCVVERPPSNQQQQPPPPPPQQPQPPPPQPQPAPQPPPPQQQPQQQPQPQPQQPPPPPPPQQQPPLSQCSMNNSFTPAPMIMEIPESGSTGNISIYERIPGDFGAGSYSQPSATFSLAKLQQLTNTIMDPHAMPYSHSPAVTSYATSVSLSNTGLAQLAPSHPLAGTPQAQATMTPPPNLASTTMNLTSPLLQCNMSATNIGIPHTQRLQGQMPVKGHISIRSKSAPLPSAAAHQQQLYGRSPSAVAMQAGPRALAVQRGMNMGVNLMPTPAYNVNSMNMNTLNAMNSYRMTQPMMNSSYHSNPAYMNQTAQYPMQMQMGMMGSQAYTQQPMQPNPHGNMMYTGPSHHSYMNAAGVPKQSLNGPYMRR

DC50 [nM]	Dmax [%]	Structure (SMILES)
10 to 100	> 75	COc1cc(Cn2cccn2)cc2onc(NS(=O)(=O)c3cccc(N4CCC(NC[C@@H]5CCN(c6ccc7c(c6)CN([C@H]6CCC(=O)NC6=O)C7=O)C5)CC4)c3)c12 [Example 36, N-(6-((1H-pyrazol-1-yl)methyl)-4-methoxybenzo[d]isoxazol-3-yl)-3-(4-((((S)-1-(2-((S)-2,6-dioxopiperidin-3-yl)-1-oxoisoindolin-5-yl)pyrrolidin-3-yl)methyl)amino)piperidin-1-yl)benzenesulfonamide]
	25 to 50	COc1cc(Cn2cccn2)cc2onc(NS(=O)(=O)c3cccc(N4CCC(CN5CCC(Oc6ccc7c(c6)C(=O)N(C6CCC(=O)NC6=O)C7=O)CC5)C4)c3)c12 (centres unmarked) [Example 23, N-(6-((1H-Pyrazol-1-yl)methyl)-4-methoxybenzo[d]isoxazol-3-yl)-3-(3-((4-((2-(2,6-dioxopiperidin-3-yl)-1,3-dioxoisoindolin-5-yl)oxy)piperidin-1-yl)methyl)pyrrolidin-1-yl)benzenesulfonamide]
< 10	> 75	COc1c(N2CC3(CCN(C[C@H]4CCN(c5ccc6c(c5)CN(C5CCC(=O)NC5=O)C6=O)C4)CC3)C2)cccc1S(=O)(=O)Nc1noc2cc(Cn3cccn3)cc(OC)c12 (stereo partly drawn) [Example 27, N-(6-((1H-Pyrazol-1-yl)methyl)-4-methoxybenzo[d]isoxazol-3-yl)-3-(7-(((3R)-1-(2-(2,6-dioxopiperidin-3-yl)-1-oxoisoindolin-5-yl)pyrrolidin-3-yl)methyl)-2,7-diazaspiro[3.5]nonan-2-yl)-2-methoxybenzenesulfonamide]
10 to 100	50 to 75	COc1cc(Cn2cccn2)cc2onc(NS(=O)(=O)c3cccc(NC4CCN(C[C@@H]5CCN(c6ccc7c(c6)CN([C@H]6CCC(=O)NC6=O)C7=O)C5)CC4)c3)c12 [Example 38, N-(6-((1H-Pyrazol-1-yl)methyl)-4-methoxybenzo[d]isoxazol-3-yl)-3-((1-(((S)-1-(2-((S)-2,6-dioxopiperidin-3-yl)-1-oxoisoindolin-5-yl)pyrrolidin-3-yl)methyl)piperidin-4-yl)amino)benzenesulfonamide]
	25 to 50	COc1cc(Cn2cccn2)cc2onc(NS(=O)(=O)c3cccc(N4CCN(CC5CCN(c6ccc(C(=O)NC7CCC(=O)NC7=O)nc6)CC5)CC4)c3)c12 (centres unmarked) [Example 29, 5-(4-((4-(3-(N-(6-((1H-Pyrazol-1-yl)methyl)-4-methoxybenzo[d]isoxazol-3-yl)sulfamoyl)phenyl)piperazin-1-yl)methyl)piperidin-1-yl)-N-(2,6-dioxopiperidin-3-yl) picolinamide]
	25 to 50	COc1cc(Cn2cccn2)cc2onc(NS(=O)(=O)c3cccc(N4CCN(CCOC5CCN(c6ccc7c(c6)C(=O)N(C6CCC(=O)NC6=O)C7=O)CC5)CC4)c3)c12 (centres unmarked) [Example 17, N-(6-((1H-Pyrazol-1-yl)methyl)-4-methoxybenzo[d]isoxazol-3-yl)-3-(4-(2-((1-(2-(2,6-dioxopiperidin-3-yl)-1,3-dioxoisoindolin-5-yl)piperidin-4-yl)oxy)ethyl)-piperazin-1-yl)benzenesulfonamide]
< 10	> 75	COc1cc(Cn2cccn2)cc2onc(NS(=O)(=O)c3cccc(N4CCC5(CCN(CC6CCN(c7ccc8c(c7)C(=O)N(C7CCC(=O)NC7=O)C8=O)C6)CC5)CC4)c3)c12 (centres unmarked) [Example 20, N-(6-((1H-Pyrazol-1-yl)methyl)-4-methoxybenzo[d]isoxazol-3-yl)-3-(9-((1-(2-(2,6-dioxopiperidin-3-yl)-1,3-dioxoisoindolin-5-yl)pyrrolidin-3-yl)methyl)-3,9-diazaspiro[5.5]undecan-3-yl)benzenesulfonamide]
< 10	> 75	COc1c(N2CC3(CCN(C[C@@H]4CCN(c5ccc6c(c5)C(=O)N(C5CCC(=O)NC5=O)C6=O)C4)CC3)C2)cccc1S(=O)(=O)Nc1noc2cc(Cn3cccn3)cc(OC)c12 (stereo partly drawn) [Example 30, N-(6-((1H-pyrazol-1-yl)methyl)-4-methoxybenzo[d]isoxazol-3-yl)-3-(7-(((3S)-1-(2-(2,6-dioxopiperidin-3-yl)-1,3-dioxoisoindolin-5-yl)pyrrolidin-3-yl)methyl)-2,7-diazaspiro[3.5]nonan-2-yl)-2-methoxybenzenesulfonamide]
100 to 1000	50 to 75	COc1cc(Cn2cccn2)cc2onc(NS(=O)(=O)c3cccc(N4CCN(CC5CCN(c6cccc7c6C(=O)N(C6CCC(=O)NC6=O)C7=O)C5)CC4)c3)c12 (centres unmarked) [Example 31, N-(6-((1H-Pyrazol-1-yl)methyl)-4-methoxybenzo[d]isoxazol-3-yl)-3-(4-((1-(2-(2,6-dioxopiperidin-3-yl)-1,3-dioxoisoindolin-4-yl)pyrrolidin-3-yl)methyl)piperazin-1-yl)benzenesulfonamide]
< 10	50 to 75	COc1cc(Cn2cccn2)cc2onc(NS(=O)(=O)c3cccc(N4CCC5(CCN(C[C@@H]6CCN(c7ccc8c(c7)C(=O)N(C7CCC(=O)NC7=O)C8=O)C6)CC5)C4)c3)c12 (stereo partly drawn) [Example 15, N-(6-((1H-Pyrazol-1-yl)methyl)-4-methoxybenzo[d]isoxazol-3-yl)-3-(8-(((3S)-1-(2-(2,6-dioxopiperidin-3-yl)-1,3-dioxoisoindolin-5-yl)pyrrolidin-3-yl)methyl)-2,8-diazaspiro[4.5]decan-2-yl)benzenesulfonamide]
100 to 1000	50 to 75	COc1cc(Cn2cccn2)cc2onc(NS(=O)(=O)c3cccc(N4CCN(CC5CCN(c6ccc7c(c6)C(=O)N(C6CCC(=O)NC6=O)C7=O)C5)C(C)(C)C4)c3)c12 (centres unmarked) [Example 21, N-(6-((1H-Pyrazol-1-yl)methyl)-4-methoxybenzo[d]isoxazol-3-yl)-3-(4-((1-(2-(2,6-dioxopiperidin-3-yl)-1,3-dioxoisoindolin-5-yl)pyrrolidin-3-yl)methyl)-3,3-dimethylpiperazin-1-yl)benzenesulfonamide]
< 10	> 75	COc1cc(Cn2cccn2)cc2onc(NS(=O)(=O)c3cccc(N4CC5(CCN(CC6CCN(c7ccc8c(c7)CN(C7CCC(=O)NC7=O)C8=O)C6)CC5)C4)c3)c12 (centres unmarked) [Example 33, N-(6-((1H-pyrazol-1-yl)methyl)-4-methoxybenzo[d]isoxazol-3-yl)-3-(7-((1-(2-(2,6-dioxopiperidin-3-yl)-1-oxoisoindolin-5-yl)pyrrolidin-3-yl)methyl)-2,7-diazaspirononan-2-yl)benzenesulfonamide]
10 to 100	50 to 75	COc1cc(Cn2cccn2)cc2onc(NS(=O)(=O)c3cccc(N4CCN(CC5CN(c6ccc7c(c6)C(=O)N(C6CCC(=O)NC6=O)C7=O)C5)CC4)c3)c12 (centres unmarked) [Example 42, N-(6-((1H-pyrazol-1-yl)methyl)-4-methoxybenzo[d]isoxazol-3-yl)-3-(4-((1-(2-(2,6-dioxopiperidin-3-yl)-1,3-dioxoisoindolin-5-yl)azetidin-3-yl)methyl)piperazin-1-yl)benzenesulfonamide]
	25 to 50	COc1cc(Cn2cccn2)cc2onc(NS(=O)(=O)c3cccc(N4CCN(CC5CN(c6ccc7c(c6)C(=O)N(C6CCC(=O)NC6=O)C7=O)CCO5)CC4)c3)c12 (centres unmarked) [Example 18, N-(6-((1H-Pyrazol-1-yl)methyl)-4-methoxybenzo[d]isoxazol-3-yl)-3-(4-((4-(2-(2,6-dioxopiperidin-3-yl)-1,3-dioxoisoindolin-5-yl)morpholin-2-yl)methyl)piperazin-1-yl)benzenesulfonamide]
< 10	> 75	COc1cc(Cn2cccn2)cc2onc(NS(=O)(=O)c3cccc(N4CC5(CCN(C[C@@H]6CCN(c7ccc8c(c7)C(=O)N(C7CCC(=O)NC7=O)C8=O)C6)CC5)C4)c3)c12 (stereo partly drawn) [Example 16, N-(6-((1H-Pyrazol-1-yl)methyl)-4-methoxybenzo[d]isoxazol-3-yl)-3-(7-(((3S)-1-(2-(2,6-dioxopiperidin-3-yl)-1,3-dioxoisoindolin-5-yl)pyrrolidin-3-yl)methyl)-2,7-diazaspiro[3.5]nonan-2-yl)benzenesulfonamide]
< 10	50 to 75	COc1cc(Cn2cccn2)cc2onc(NS(=O)(=O)c3cccc(N4CC5(CCN(C[C@H]6CCN(c7ccc8c(c7)C(=O)N(C7CCC(=O)NC7=O)C8=O)C6)CC5)C4)c3)c12 (stereo partly drawn) [Example 35, N-(6-((1H-pyrazol-1-yl)methyl)-4-methoxybenzo[d]isoxazol-3-yl)-3-(7-(((3R)-1-(2-(2,6-dioxopiperidin-3-yl)-1,3-dioxoisoindolin-5-yl)pyrrolidin-3-yl)methyl)-2,7-diazaspiro[3.5]nonan-2-yl)benzenesulfonamide]
< 10	> 75	COc1cc(Cn2cccn2)cc2onc(NS(=O)(=O)c3cccc(N4C[C@@H]5CN(C[C@@H]6CCN(c7ccc8c(c7)CN([C@H]7CCC(=O)NC7=O)C8=O)C6)C[C@H]5C4)c3)c12 [Example 40, N-(6-((1H-Pyrazol-1-yl)methyl)-4-methoxybenzo[d]isoxazol-3-yl)-3-((3aS,6aS)-5-(((S)-1-(2-((S)-2,6-dioxopiperidin-3-yl)-1-oxoisoindolin-5-yl)pyrrolidin-3-yl)methyl)hexahydropyrrolo[3,4-c]pyrrol-2(1H)-yl)benzenesulfonamide]
< 10	> 75	COc1cc(Cn2cccn2)cc2onc(NS(=O)(=O)c3cccc(N4CC5(CCN(C[C@@H]6CCN(c7ccc8c(c7)CN([C@H]7CCC(=O)NC7=O)C8=O)C6)CC5)C4)c3)c12 [Example 28, N-(6-((1H-Pyrazol-1-yl)methyl)-4-methoxybenzo[d]isoxazol-3-yl)-3-(7-(((S)-1-(2-((S)-2,6-dioxopiperidin-3-yl)-1-oxoisoindolin-5-yl)pyrrolidin-3-yl)methyl)-2,7-diazaspiro[3.5]nonan-2-yl)benzenesulfonamide]

— patent US20230416240A1, “KAT6 TARGETING COMPOUNDS” (Prelude Therapeutics Incorporated, priority 2022, published 2023)
